Legend:
[1] = target: T1, EGFR (Homo sapiens, UniProt P00533); assay: Inhibitory effect on tyrosine kinase activity of EGFR; assay type: biochemical; conditions: EGFR 40 ng/ml, ATP 10 μM, 30 min
T1 construct: purchased Invitrogen Company PV3872
Procedure: EGFR: Invitrogen Company, Catalogue No. PV3872
pGT (poly(glutamic acid-tyrosine)): Sigma-Aldrich Company, Catalogue No. P0275
The assay method is briefly described as follows.
3.1.1 At 4° C., 96-well microtiter plate was coated with 0.2 mg/mL pGT (as the substrate of enzyme) dissolved in PBS (phosphate buffer) overnight. Unbound pGT was washed away with a washing solution (0.05% Tween −20 in PBS), and the plate was dried in the air at room temperature for 2 h.
3.1.2 The enzyme reaction was performed in 50 μl reaction system containing 50 mM HEPEs (N-(2-hydroxyethyl)piperazine-N′-2-ethanesulfonic acid), pH 7.5, 0.01% BRIJ-35 (polyoxyethylene lauryl ether), 10 mM MgCl2, 1 mM EGTA (ethylene glycol bis(2-aminoethyl ether)tetraacetic acid), with certain concentrations of ATP (adenosine triphosphate) and kinase, and proceeded for 30 min at room temperature. The phosphate group at the terminal of ATP can be transferred to tyrosine residues of pGT by kinase catalysis so as to phosphorylate the tyrosine residues.
3.1.3 A final concentration of 1% SDS (sodium dodecyl sulfate) was added to terminate the reaction. The phosphorylated tyrosine residues were identified using pY-20. HRP at the end of the antibody enabled TMB to take on color. Then equal amount of 2 N H2SO4 was added to terminate the reaction. OD value, which is positively correlated with the phosphorylation degree of tyrosine residues of pGT, was measured at 450 nm
3.2 The concentrations of the kinase and substrate ATP were determined with reference to the literature “Optimization of a LanthaScreen Kinase assay for EGFR (ErbB1)”(https://tools.lifetechnologies.com/content/sfs/manuals/EGFR_LanthaScreen_actity_Europium.pdf), published by Invitrogen Corporation. The selection criteria for the final concentrations are that the concentration of kinase enabling the yield of the product within the linear range of the detection system and the concentration of ATP approching Km (Michaelis constant) value.
3.3.1 An appropriate amount of a compound was dissolved in DMSO (dimethylsulfoxide) to prepare 2 mM stock solution. Then the stock solution was diluted with DMSO to obtain a working solution with a 50-fold concentration of the highest test concentration, and subjected to a 4-fold gradient dilution to obtain seven concentrations in total.
5 μl 10-fold concentration of ATP dissolved in H2O (the concentration of ATP in EGFR assay is 100 μM, and in Her2 assay is 400 μM) was added to initiate the enzyme reaction followed by reaction at room temperature for 30 min
The mean value of inhibition rate and SD (standard deviation) were determined by duplicate wells. A curve with the concentration of the compound as abscissa and being in logarithmic distribution and the mean value of inhibition rate as ordinate was plotted and fitted using four-parameter logistic function.

[2] = system: human non-small cell lung cancer cell line HCC827; assay: In vitro inhibitory action on human tumor cells, HCC827 (SRB); assay type: cell-based; conditions: SRB assay, usually 3 days
Procedure: Human epidermoid carcinoma cell line A431, human non-small cell lung cancer cell line HCC827, head and neck cancer cell lines Fadu and human pancreatic cancer cell line AsPC-1 were purchased from Cell Bank, Chinese Academy of Sciences.
3.2 Cell culture method: cells were cultured in the complete medium at 37° C. under 5% CO2 and saturated humidity until logarithmic growth phase, i.e., adherent cells substantially approach complete confluence, and then collected for subsequent assay. For the adherent cells, they were firstly digested with trypsin/EDTA to detach.
3.3 A certain number of cells were seeded into 96-well cell culture plates (hereinafter referred to as 96-well plates). […] Finally, total cellular protein in the wells was determined using SRB assay, or cell viability was determined with MTT assay.
3.3.1 The cell seeding concentration was determined by cell growth curve assay which completely simulates compound inhibition assay process. […]
3.4 Dilution and addition of compounds: the concentration of DMSO that can be tolerant by the cells was determined by DMSO tolerance assay, and thereby selecting the dilution and addition methods of compounds. The effects of different concentrations of DMSO on cell growth were determined by DMSO tolerance assay. […] Two methods are finally determined as follows. […]

T1 sequence (P00533 25-1210): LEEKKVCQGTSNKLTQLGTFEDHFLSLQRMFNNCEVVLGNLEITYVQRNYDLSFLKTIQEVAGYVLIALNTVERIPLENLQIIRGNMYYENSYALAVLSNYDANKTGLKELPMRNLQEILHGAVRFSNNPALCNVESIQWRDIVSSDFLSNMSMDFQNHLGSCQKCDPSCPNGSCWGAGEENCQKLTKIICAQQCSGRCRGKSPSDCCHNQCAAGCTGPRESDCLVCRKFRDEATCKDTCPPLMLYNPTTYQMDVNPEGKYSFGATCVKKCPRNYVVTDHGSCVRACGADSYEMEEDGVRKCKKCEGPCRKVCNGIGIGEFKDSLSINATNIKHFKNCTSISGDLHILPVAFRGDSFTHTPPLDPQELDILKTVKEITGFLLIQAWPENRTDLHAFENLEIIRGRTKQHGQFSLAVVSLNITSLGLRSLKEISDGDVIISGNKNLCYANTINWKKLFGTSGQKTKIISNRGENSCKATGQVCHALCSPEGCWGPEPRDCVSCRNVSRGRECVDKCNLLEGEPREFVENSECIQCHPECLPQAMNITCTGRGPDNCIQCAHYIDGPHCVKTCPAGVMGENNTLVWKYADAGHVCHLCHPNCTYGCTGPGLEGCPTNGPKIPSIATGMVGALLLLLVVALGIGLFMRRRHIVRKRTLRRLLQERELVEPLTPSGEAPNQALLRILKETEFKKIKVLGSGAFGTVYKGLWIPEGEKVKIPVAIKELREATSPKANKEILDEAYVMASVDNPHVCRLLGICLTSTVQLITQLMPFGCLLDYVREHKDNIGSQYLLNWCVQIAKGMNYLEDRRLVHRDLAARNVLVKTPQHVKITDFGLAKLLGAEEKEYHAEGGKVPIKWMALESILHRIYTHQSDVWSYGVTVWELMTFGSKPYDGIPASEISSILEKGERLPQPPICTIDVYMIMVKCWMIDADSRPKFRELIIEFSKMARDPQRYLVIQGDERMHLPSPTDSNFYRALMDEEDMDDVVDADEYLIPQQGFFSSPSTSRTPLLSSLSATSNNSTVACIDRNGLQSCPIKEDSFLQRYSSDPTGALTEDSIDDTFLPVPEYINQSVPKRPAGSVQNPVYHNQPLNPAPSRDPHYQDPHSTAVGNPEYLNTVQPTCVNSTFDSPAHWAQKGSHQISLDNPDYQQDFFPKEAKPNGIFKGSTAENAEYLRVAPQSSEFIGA

Structure (SMILES) | IC50 [1] | IC50 ([2]; Homo sapiens, HCC827, 72 h) | IC50 [2]
COCCOc1cc2ncnc(Nc3ccc(F)c(Cl)c3)c2cc1NC(=O)C=C1CCN(CCOC)CC1 [Compound 1, N-[4-(3-chloro-4-fluorophenylamino)-7-(2-methoxyethoxy)quinazolin-6-yl]-2-[1-(2-methoxyethyl)piperidin-4-ylidene]acetamide] | 0.4 nM | 8 nM | –
COCCOc1cc2ncnc(Nc3ccc(F)c(Cl)c3)c2cc1NC(=O)C=C1CCN(CCOC)CC1.Cl.Cl [Compound 2, N-[4-(3-chloro-4-fluorophenylamino)-7-(2-methoxyethoxy)quinazolin-6yl]-2-[1-(2-methoxyethyl)piperidin-4-ylidene]acetamide dihydrochloride] | 0.5 nM | – | –
COCCOc1cc2ncnc(Nc3ccc(F)c(Cl)c3)c2cc1NC(=O)C=C1CCN(CCOC)CC1.CS(=O)(=O)O [Compound 3, N-[4-(3-chloro-4-fluorophenylamino)-7-(2-methoxyethoxy)quinazolin-6-yl]-2-[1-(2-methoxyethyl)piperidin-4-ylidene]acetamide dimethylsulfonate] | 0.4 nM | – | 10 nM
